Reference: ChEMBL document CHEMBL1201862, “PubChem BioAssay data set” (2004)
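1) Cells in 96-well plates. 2) Compound, 48 h, 5 concentrations. 3) Linear interpolation between surrounding doses. 4) Unreached endpoint = highest concentration. GI50 = concentration required for 50% inhibition of growth.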 The source made the active and inactive calls. Cut-off read from the data, not from the text of the source: active = GI50 up to about 1.1 µM and inactive = higher.

How the values were obtained:
Test in all cases: NCI tumour cell line growth inhibition, 48 h
HL-60 = test system: HL-60
K562 = test system: K562
SNB-75 = test system: SNB-75
HOP-92 = test system: HOP-92
OVCAR-3 = test system: OVCAR-3
UACC-257 = test system: UACC-257
COLO 205 = test system: COLO 205
OVCAR-8 = test system: OVCAR-8
A549 = test system: A549
OVCAR-5 = test system: OVCAR-5
CAKI-1 = test system: CAKI-1
UO-31 = test system: UO-31
NCI-H23 = test system: NCI-H23
CCRF-CEM = test system: CCRF-CEM
SK-MEL-2 = test system: SK-MEL-2
NCI-H522 = test system: NCI-H522
BT-549 = test system: BT-549
Hs-578T = test system: Hs-578T
RXF 393 = test system: RXF 393
RPMI-8226 = test system: RPMI-8226

| Structure (SMILES) | GI50 (HL-60) | GI50 (K562) | GI50 (SNB-75) | GI50 (HOP-92) | GI50 (OVCAR-3) | GI50 (UACC-257) | GI50 (COLO 205) | GI50 (OVCAR-8) | GI50 (A549) | GI50 (OVCAR-5) | GI50 (CAKI-1) | GI50 (UO-31) | GI50 (NCI-H23) | GI50 (CCRF-CEM) | GI50 (SK-MEL-2) | GI50 (NCI-H522) | GI50 (BT-549) | GI50 (Hs-578T) | GI50 (RXF 393) | GI50 (RPMI-8226) |
| --- | --- | --- | --- | --- | --- | --- | --- | --- | --- | --- | --- | --- | --- | --- | --- | --- | --- | --- | --- | --- |
| O=[N+]([O-])c1ccc(-n2nc3ccc4c(no[n+]4[O-])c3n2)cc1 | 7.35 µM (inactive) | > 100 µM (inactive) | 61.7 µM (inactive) | 5.82 µM (inactive) | > 100 µM (inactive) | > 100 µM (inactive) | > 100 µM (inactive) | > 100 µM (inactive) | 12.4 µM (inactive) | > 100 µM (inactive) | > 100 µM (inactive) | 15.1 µM (inactive) | > 100 µM (inactive) | > 100 µM (inactive) | > 100 µM (inactive) | > 100 µM (inactive) | > 100 µM (inactive) | > 100 µM (inactive) |  |  |
| OC1[C@@H]2[C@@H](O)[C@H](O)[C@@H](O)N2C[C@@H]1O (stereo partly drawn) |  | > 100 µM (inactive) | > 100 µM (inactive) | > 100 µM (inactive) | > 100 µM (inactive) | > 100 µM (inactive) | > 100 µM (inactive) | > 100 µM (inactive) | > 100 µM (inactive) | > 100 µM (inactive) | > 100 µM (inactive) | > 100 µM (inactive) | > 100 µM (inactive) | > 100 µM (inactive) | > 100 µM (inactive) | > 100 µM (inactive) | > 100 µM (inactive) | > 100 µM (inactive) | > 100 µM (inactive) |  |
| Oc1c2cccc1Cc1cccc3c1OCCOCCOCCOCCOc1c(cccc1Cc1cccc(c1O)C3)C2 |  | > 100 µM (inactive) | 22 µM (inactive) | > 100 µM (inactive) | 0.897 µM (active) | 66.2 µM (inactive) | > 100 µM (inactive) | 85.7 µM (inactive) | > 100 µM (inactive) | > 100 µM (inactive) | > 100 µM (inactive) | > 100 µM (inactive) | > 100 µM (inactive) | > 100 µM (inactive) | > 100 µM (inactive) | 18.5 µM (inactive) | > 100 µM (inactive) | 18.4 µM (inactive) | > 100 µM (inactive) | > 100 µM (inactive) |
| NC(=O)C(=CNC(N)=S)C(N)=O | > 100 µM (inactive) | > 100 µM (inactive) | > 100 µM (inactive) |  | > 100 µM (inactive) | > 100 µM (inactive) | > 100 µM (inactive) | > 100 µM (inactive) | > 100 µM (inactive) | > 100 µM (inactive) | > 100 µM (inactive) | 60 µM (inactive) | > 100 µM (inactive) | > 100 µM (inactive) | > 100 µM (inactive) | > 100 µM (inactive) | > 100 µM (inactive) | > 100 µM (inactive) | > 100 µM (inactive) | > 100 µM (inactive) |
| O=c1c2nc3ccccc3c(=O)n2ncn1-c1ccccc1Cl | > 100 µM (inactive) | > 100 µM (inactive) | > 100 µM (inactive) | > 100 µM (inactive) | > 100 µM (inactive) | > 100 µM (inactive) | > 100 µM (inactive) | > 100 µM (inactive) | > 100 µM (inactive) | > 100 µM (inactive) | > 100 µM (inactive) | > 100 µM (inactive) | > 100 µM (inactive) | > 100 µM (inactive) | > 100 µM (inactive) | > 100 µM (inactive) | > 100 µM (inactive) | > 100 µM (inactive) |  | > 100 µM (inactive) |
